Source: patent US20040102438A1, “Gaba-receptor modulators for the treatment of neurodegenerative diseases of the eye” (priority 2001, published 2004)

What was measured:
[1] = Properties of the active ingredients (solubility, lipophilicity); type: physicochemical
[2] = test system: cultured cortical cells of the rat; test: L-glutamate excitotoxicity in cultured cortical cells, cell death by LDH release (Tests 1 and 2); type: cell-based; conditions: active ingredient 500 nm plus 10 nm L-glutamate; after 10, 30 and 60 minutes compared with the control group (FIG. 1, FIG. 2)
Protocol: Dissociated cortical cells from 16-18 day old fetal rats were bred in 35 mm dishes. The nutrient medium contained during the first 7 days L-lutamine (4 mM), glucose (6 g/l), penicillin (100 U/ml), streptomycin (100 μg/ml) and 10% hormonally enriched medium, which [contained] transferrin (1 mg/ml), insulin (250 μg/ml), putrescine (600 μM), sodium selenite (0.3 μM), progesterone (0.2 μM) and estradio (0.1 μM). The dishes were stored in an atmosphere (5% CO2 and […]) heated to 37 degrees Celsius.
To form the control group (Series 1), half of the dishes were supplemented with the nutrient medium 10 nm L-glutamate and incubated under normotoxic conditions for 4 hours.
To determine the neuroprotective properties, the other half of the dishes were supplemented with the nutrient medium flunitrazepam 500 nm and 10 nm L-glutamate (Series 2) and likewise incubated under normotoxic conditions.
The number of surviving or devitalized cells was determined by determination of the amount of lactate-dehydrogenase (LDH) ejected into the cell medium. The LDH activity was determined photospectrometrically by measurement of the NADH metabolism at 340 nm. […]
In the diagrams of FIG. 1 and FIG. 2 the measured values were entered as follows: The measured value describes the number of dead cells after the test in relation to the total number of cells before the test in percent. […]

Structure (SMILES)	water solubility [1]	number of dying cells [2]
Cc1ncc2n1-c1ccc(Cl)cc1C(c1ccccc1F)=NC2 [Midazolam]	water-soluble	
CN1C(=O)CN=C(c2ccccc2F)c2cc([N+](=O)[O-])ccc21 [flunitrazepam]		reduction in the number of dying cells
COCc1c(C(=O)OC(C)C)ncc2[nH]c3ccc(OCc4ccccc4)cc3c12 [abecamil, abecarnil]		reduction in the number of dying cells
